≈ marks a conversion by molar mass, not a printed value.
Legend:
[1] = 1-Octanol/water partition coefficient, log P of compound at 2 mg after 24 hrs by spectrophotometry based shake flask method; type: physicochemical
[2] = Antioxidant activity assessed as DPPH free radical scavenging activity at 5 ug/ml after 30 mins by spectrophotometric analysis; type: functional
[3] = Antioxidant activity assessed as DPPH free radical scavenging activity at 25 ug/ml after 30 mins by spectrophotometric analysis; type: functional
[4] = Antioxidant activity assessed as DPPH free radical scavenging activity at 50 ug/ml after 30 mins by spectrophotometric analysis; type: functional
[5] = Antioxidant activity assessed as DPPH free radical scavenging activity at 100 ug/ml after 30 mins by spectrophotometric analysis; type: functional
[6] = Antioxidant activity assessed as DPPH free radical scavenging activity at 150 ug/ml after 30 mins by spectrophotometric analysis; type: functional
[7] = Antioxidant activity assessed as DPPH free radical scavenging activity at 200 ug/ml after 30 mins by spectrophotometric analysis; type: functional
[8] = Antioxidant activity assessed as DPPH free radical scavenging activity after 30 mins by spectrophotometric analysis; type: functional
Rattus norvegicus [9] = species on record: Rattus norvegicus; test: Reduction in intraocular pressure in Wistar rat model of dexamethasone-induced elevated IOP assessed as change in intraocular pressure at 1 % w/v after 0.5 hrs by tonometry (reference value: 0%); type: functional; parameters: scale not given: the % may be the effect or the level left
Rattus norvegicus [10] = species on record: Rattus norvegicus; test: Reduction in intraocular pressure in Wistar rat model of dexamethasone-induced elevated IOP assessed as change in intraocular pressure at 1 % w/v after 1 hr by tonometry (reference value: 0%); type: functional; parameters: scale not given: the % may be the effect or the level left
Rattus norvegicus [11] = species on record: Rattus norvegicus; test: Reduction in intraocular pressure in Wistar rat model of dexamethasone-induced elevated IOP assessed as change in intraocular pressure at 1 % w/v after 1.5 hrs by tonometry (reference value: 0%); type: functional; parameters: scale not given: the % may be the effect or the level left
Rattus norvegicus [12] = species on record: Rattus norvegicus; test: Reduction in intraocular pressure in Wistar rat model of dexamethasone-induced elevated IOP assessed as change in intraocular pressure at 1 % w/v after 2 hrs by tonometry (reference value: 0%); type: functional; parameters: scale not given: the % may be the effect or the level left
Rattus norvegicus [13] = species on record: Rattus norvegicus; test: Reduction in intraocular pressure in Wistar rat model of dexamethasone-induced elevated IOP assessed as change in intraocular pressure at 1 % w/v after 2.5 hrs by tonometry (reference value: 0%); type: functional; parameters: scale not given: the % may be the effect or the level left
Rattus norvegicus [14] = species on record: Rattus norvegicus; test: Reduction in intraocular pressure in Wistar rat model of dexamethasone-induced elevated IOP assessed as change in intraocular pressure at 1 % w/v after 3 hrs by tonometry (reference value: 0%); type: functional; parameters: scale not given: the % may be the effect or the level left
Rattus norvegicus [15] = species on record: Rattus norvegicus; test: Reduction in intraocular pressure in Wistar rat model of dexamethasone-induced elevated IOP assessed as change in intraocular pressure at 1 % w/v after 4 hrs by tonometry (reference value: 0%); type: functional; parameters: scale not given: the % may be the effect or the level left
Rattus norvegicus [16] = species on record: Rattus norvegicus; test: Reduction in intraocular pressure in Wistar rat model of dexamethasone-induced elevated IOP assessed as change in intraocular pressure at 1 % w/v after 5 hrs by tonometry (reference value: 0%); type: functional; parameters: scale not given: the % may be the effect or the level left
Rattus norvegicus [17] = species on record: Rattus norvegicus; test: Reduction in intraocular pressure in Wistar rat model of dexamethasone-induced elevated IOP assessed as change in intraocular pressure at 1 % w/v after 6 hrs by tonometry (reference value: 0%); type: functional; parameters: scale not given: the % may be the effect or the level left
Rattus norvegicus [18] = species on record: Rattus norvegicus; test: Reduction in intraocular pressure in Wistar rat model of dexamethasone-induced elevated IOP assessed as change in intraocular pressure in contralateral eye at 1 % w/v after 0.5 hrs by tonometry (reference value: 0%); type: ADME, organism-based; parameters: scale not given: the % may be the effect or the level left; conditions: in vivo, topical_or_ocular
Rattus norvegicus [19] = species on record: Rattus norvegicus; test: Reduction in intraocular pressure in Wistar rat model of dexamethasone-induced elevated IOP assessed as change in intraocular pressure in contralateral eye at 1 % w/v after 1 hr by tonometry (reference value: 0%); type: ADME, organism-based; parameters: scale not given: the % may be the effect or the level left; conditions: in vivo, topical_or_ocular
Rattus norvegicus [20] = species on record: Rattus norvegicus; test: Reduction in intraocular pressure in Wistar rat model of dexamethasone-induced elevated IOP assessed as change in intraocular pressure in contralateral eye at 1 % w/v after 1.5 hrs by tonometry (reference value: 0%); type: ADME, organism-based; parameters: scale not given: the % may be the effect or the level left; conditions: in vivo
Rattus norvegicus [21] = species on record: Rattus norvegicus; test: Reduction in intraocular pressure in Wistar rat model of dexamethasone-induced elevated IOP assessed as change in intraocular pressure in contralateral eye at 1 % w/v after 2 hrs by tonometry (reference value: 0%); type: ADME, organism-based; parameters: scale not given: the % may be the effect or the level left; conditions: in vivo
Rattus norvegicus [22] = species on record: Rattus norvegicus; test: Reduction in intraocular pressure in Wistar rat model of dexamethasone-induced elevated IOP assessed as change in intraocular pressure in contralateral eye at 1 % w/v after 2.5 hrs by tonometry (reference value: 0%); type: ADME, organism-based; parameters: scale not given: the % may be the effect or the level left; conditions: in vivo
Rattus norvegicus [23] = species on record: Rattus norvegicus; test: Reduction in intraocular pressure in Wistar rat model of dexamethasone-induced elevated IOP assessed as change in intraocular pressure in contralateral eye at 1 % w/v after 3 hrs by tonometry (reference value: 0%); type: ADME, organism-based; parameters: scale not given: the % may be the effect or the level left; conditions: in vivo
Rattus norvegicus [24] = species on record: Rattus norvegicus; test: Reduction in intraocular pressure in Wistar rat model of dexamethasone-induced elevated IOP assessed as change in intraocular pressure in contralateral eye at 1 % w/v after 4 hrs by tonometry (reference value: 0%); type: ADME, organism-based; parameters: scale not given: the % may be the effect or the level left; conditions: in vivo
Rattus norvegicus [25] = species on record: Rattus norvegicus; test: Reduction in intraocular pressure in Wistar rat model of dexamethasone-induced elevated IOP assessed as change in intraocular pressure in contralateral eye at 1 % w/v after 5 hrs by tonometry (reference value: 0%); type: ADME, organism-based; parameters: scale not given: the % may be the effect or the level left; conditions: in vivo
Rattus norvegicus [26] = species on record: Rattus norvegicus; test: Reduction in intraocular pressure in Wistar rat model of dexamethasone-induced elevated IOP assessed as change in intraocular pressure in contralateral eye at 1 % w/v after 6 hrs by tonometry (reference value: 0%); type: ADME, organism-based; parameters: scale not given: the % may be the effect or the level left; conditions: in vivo
Rattus norvegicus [27] = species on record: Rattus norvegicus; test: Reduction in intraocular pressure in Wistar rat model of dexamethasone-induced elevated IOP assessed as onset time for reduction in intraocular pressure at 1 % w/v by tonometry; type: functional
Rattus norvegicus [28] = species on record: Rattus norvegicus; test: Reduction in intraocular pressure in Wistar rat model of dexamethasone-induced elevated IOP assessed as peak effect time for reduction in intraocular pressure at 1 % w/v by tonometry; type: functional, organism-based
Rattus norvegicus [29] = species on record: Rattus norvegicus; test: Reduction in intraocular pressure in Wistar rat model of dexamethasone-induced elevated IOP assessed as reduction in intraocular pressure at peak effect time at 1 % w/v by tonometry; type: functional; parameters: scale not given: the % may be the effect or the level left

| SMILES | logP at 24 h [1] | Activity [2] | Activity [3] | Activity [4] | Activity [5] | Activity [6] | Activity [7] | IC50 [8] | Activity (Rattus norvegicus [9]) | Activity (Rattus norvegicus [10]) | Activity (Rattus norvegicus [11]) | Activity (Rattus norvegicus [12]) | Activity (Rattus norvegicus [13]) | Activity (Rattus norvegicus [14]) | Activity (Rattus norvegicus [15]) | Activity (Rattus norvegicus [16]) | Activity (Rattus norvegicus [17]) | Activity (Rattus norvegicus [18]) | Activity (Rattus norvegicus [19]) | Activity (Rattus norvegicus [20]) | other results |
| --- | --- | --- | --- | --- | --- | --- | --- | --- | --- | --- | --- | --- | --- | --- | --- | --- | --- | --- | --- | --- | --- |
| O=C(CN1CCN(C(c2ccccc2)c2ccccc2)CC1)Nc1nc2ccccc2[nH]1 | 1.89 | 22.1% | 32.9% | 41.5% | 53.7% | 66.6% | 81.4% | 88.68 µg/mL (≈ 208 µM) | 4.37% | 5.83% | 10.38% | 16.47% | 12.4% | 8.17% | 7.33% | 3.67% | 1.7% | 0.77% | 1.13% | 3.43% | Activity (Rattus norvegicus [21]): 5.08%; Activity (Rattus norvegicus [22]): 4%; Activity (Rattus norvegicus [23]): 3%; Activity (Rattus norvegicus [24]): 1.53%; Activity (Rattus norvegicus [25]): 0%; Activity (Rattus norvegicus [26]): 0%; Time (Rattus norvegicus [27]): 0.5 h; Tmax (Rattus norvegicus [28]): 2.5 h; Activity (Rattus norvegicus [29]): 51.91% |
| O=C(CN1CCN(c2ccccn2)CC1)Nc1nc2ccccc2[nH]1 | 1.05 | 30.8% | 40.9% | 50% | 57.3% | 69.1% | 76.2% | 69.97 µg/mL (≈ 208 µM) | 4% | 7% | 10% | 15.87% | 10.62% | 7.82% | 5.05% | 2.87% | 0.65% | 0.85% | 1.15% | 2% | Activity (Rattus norvegicus [21]): 4%; Activity (Rattus norvegicus [22]): 1.07%; Activity (Rattus norvegicus [23]): 0.65%; Activity (Rattus norvegicus [24]): 0%; Activity (Rattus norvegicus [25]): 0%; Activity (Rattus norvegicus [26]): 0%; Time (Rattus norvegicus [27]): 0.5 h; Tmax (Rattus norvegicus [28]): 2 h; Activity (Rattus norvegicus [29]): 51.38% |
| CCN1CCN(CC(=O)Nc2nc3ccccc3[nH]2)CC1 | 1.09 | 13.3% | 26.6% | 35.7% | 45.7% | 57.5% | 65.8% | 124.91 µg/mL (≈ 435 µM) | 4.12% | 6.23% | 9.55% | 10.6% | 12.25% | 8.93% | 5.65% | 0.53% | 0.45% | 1.4% | 2.37% | 3.73% | Activity (Rattus norvegicus [21]): 5.22%; Activity (Rattus norvegicus [22]): 4.8%; Activity (Rattus norvegicus [23]): 2.62%; Activity (Rattus norvegicus [24]): 0%; Activity (Rattus norvegicus [25]): 0%; Activity (Rattus norvegicus [26]): 0%; Time (Rattus norvegicus [27]): 0.5 h; Tmax (Rattus norvegicus [28]): 2.5 h; Activity (Rattus norvegicus [29]): 45.02% |
| CN1CCN(CC(=O)Nc2nc3ccccc3[nH]2)CC1 | 1.67 | 11% | 19.9% | 33.5% | 45% | 54.3% | 61.6% | 137.54 µg/mL (≈ 503 µM) | 5.47% | 9.77% | 11.95% | 12.97% | 13.57% | 10.3% | 4.45% | 1.35% | 0.3% | 1.08% | 2.08% | 4% | Activity (Rattus norvegicus [21]): 5.75%; Activity (Rattus norvegicus [22]): 6.57%; Activity (Rattus norvegicus [23]): 2.15%; Activity (Rattus norvegicus [24]): 0.55%; Activity (Rattus norvegicus [25]): 0%; Activity (Rattus norvegicus [26]): 0%; Time (Rattus norvegicus [27]): 0.5 h; Tmax (Rattus norvegicus [28]): 2.5 h; Activity (Rattus norvegicus [29]): 44.68% |
| COc1ccccc1N1CCN(CC(=O)Nc2nc3ccccc3[nH]2)CC1 | 0.97 | 10.8% | 21.3% | 35.7% | 43.2% | 55.2% | 64.5% | 132.65 µg/mL (≈ 363 µM) | 4.2% | 5.37% | 9.48% | 16.5% | 11.02% | 7.35% | 4.53% | 1.73% | 0.9% | 1.27% | 2.1% | 4.1% | Activity (Rattus norvegicus [21]): 4.77%; Activity (Rattus norvegicus [22]): 2.5%; Activity (Rattus norvegicus [23]): 1.7%; Activity (Rattus norvegicus [24]): 0%; Activity (Rattus norvegicus [25]): 0%; Activity (Rattus norvegicus [26]): 0%; Time (Rattus norvegicus [27]): 0.5 h; Tmax (Rattus norvegicus [28]): 2.5 h; Activity (Rattus norvegicus [29]): 49.92% |
| O=C(CN1CCN(C(=O)c2ccco2)CC1)Nc1nc2ccccc2[nH]1 | 2.02 | 14.5% | 23.4% | 35.9% | 49% | 59% | 71% | 116.48 µg/mL (≈ 330 µM) | 3.9% | 4.6% | 8.8% | 11.1% | 14.92% | 8.63% | 6.6% | 4.47% | 1.27% | 0.4% | 1.6% | 2.03% | Activity (Rattus norvegicus [21]): 3.1%; Activity (Rattus norvegicus [22]): 4.15%; Activity (Rattus norvegicus [23]): 2.3%; Activity (Rattus norvegicus [24]): 0.8%; Activity (Rattus norvegicus [25]): 0%; Activity (Rattus norvegicus [26]): 0%; Time (Rattus norvegicus [27]): 0.5 h; Tmax (Rattus norvegicus [28]): 2 h; Activity (Rattus norvegicus [29]): 48.33% |
| O=C(CN1CCN(c2ncccn2)CC1)Nc1nc2ccccc2[nH]1 | 1.85 | 8.77% | 20.4% | 31% | 46.5% | 68.4% | 81.8% | 107.77 µg/mL (≈ 319 µM) | 3.5% | 7.42% | 10.92% | 15.45% | 11.77% | 9.1% | 5.62% | 3.15% | 0.35% | 0.95% | 1.85% | 2.05% | Activity (Rattus norvegicus [21]): 3.97%; Activity (Rattus norvegicus [22]): 2.1%; Activity (Rattus norvegicus [23]): 0.42%; Activity (Rattus norvegicus [24]): 0%; Activity (Rattus norvegicus [25]): 0%; Activity (Rattus norvegicus [26]): 0%; Time (Rattus norvegicus [27]): 0.5 h; Tmax (Rattus norvegicus [28]): 2 h; Activity (Rattus norvegicus [29]): 50% |

— ChEMBL document CHEMBL4177608, “Design and synthesis of benzimidazole-based Rho kinase inhibitors for the treatment of glaucoma” (Bioorg Med Chem, 2017)
